Columns and labels:
WJ-MSCs [1] = settings: glutathione at 100 μM (tested 0, 10, 50, 100 μM) after H2O2 0-100 μM; FIG. 2
Experimental: In order to determine the optimal concentration of glutathione in the cryopreservation formulation, the WJ-MSCs were treated with hydrogen peroxide (H2O2) at concentrations of 0 μM, 10 μM, 50 μM, and 100 μM, to induce stress caused by reactive oxygen species, and then further treated with glutathione at concentrations of 0 μM, 10 μM, 50 μM, and 100 μM, and cell recovery was evaluated using a CCK-8 assay.

WJ-MSCs [2] = settings: FIG. 1
Experimental: Specifically, the umbilical cord was cut into 3-4 cm lengths, the tissue was finely chopped and treated with collagenase solution (Gibco, USA) for 60 to 90 minutes to degrade the extracellular matrix, and 0.25% trypsin (Gibco, USA) was added to further induce digestion for 30 minutes at 37° C. Then, fetal bovine serum (FBS; Biowest, USA) was added and cells were obtained by centrifugation at 1,000 g for 10 minutes, and then were cultured in a 5% CO2 environment at 37° C. using MEM Alpha (Minimum Essential Medium, Invitrogen-Gibco, Rockville, MD) medium containing 10% FBS (fetal bovine serum, Invitrogen-Gibco) and 50 μg/mL gentamicin (Invitrogen-Gibco) to obtain human umbilical cord-derived mesenchymal stem cells (WJ-MSCs), which were then used in the experiment. […] The WJ-MSCs were seeded at 1×10^4 cells in a 96-well plate and cultured for 24 hours.

Structure (SMILES): N[C@@H](CCC(=O)N[C@@H](CS)C(=O)NCC(=O)O)C(=O)O [glutathione]
- cell viability (cell recovery) (WJ-MSCs [1]): highest
- cell viability (WJ-MSCs [2]; 1×10^4 cells in 96-well plate, cultured 24 hours, compared with acetadote, fursultiamine hydrochloride, vitamin C): highest
- cell proliferation (WJ-MSCs [2]; CCK-8 assay): further increased

— patent publication US20260242748A1, “FORMULATION FOR CELL CRYOPRESERVATION” (ENCELL CO., LTD, priority 2023, published 2026)
